Values joined by “and” are separate entries in the source; they are usually repeats but may differ in a detail not shown here. Equal values may be shown once.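 Results reflect a 48-hour exposure of cells in 96-well plates to compound at five concentrations. The concentration for 50% growth inhibition is given as GI50.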 Active and inactive are the calls of the source. No stated cut-off is given here; in the data, active = GI50 up to about 1.1 µM and inactive = higher.
Columns and labels:
Assay in all cases: DTP human tumour cell line panel, 48 h
M14 = test system: M14
HL-60 = test system: HL-60
OVCAR-5 = test system: OVCAR-5
RXF 393 = test system: RXF 393
SW-620 = test system: SW-620
T47D = test system: T47D
SF-295 = test system: SF-295
UACC-62 = test system: UACC-62
Malme-3M = test system: Malme-3M
HOP-62 = test system: HOP-62
UACC-257 = test system: UACC-257
PC-3 = test system: PC-3
HCT-15 = test system: HCT-15
SNB-75 = test system: SNB-75
NCI-H522 = test system: NCI-H522
MDA-MB-435 = test system: MDA-MB-435
SNB-19 = test system: SNB-19
OVCAR-8 = test system: OVCAR-8
SK-MEL-2 = test system: SK-MEL-2
MCF7 = test system: MCF7

SMILES | GI50 (M14) | GI50 (HL-60) | GI50 (OVCAR-5) | GI50 (RXF 393) | GI50 (SW-620) | GI50 (T47D) | GI50 (SF-295) | GI50 (UACC-62) | GI50 (Malme-3M) | GI50 (HOP-62) | GI50 (UACC-257) | GI50 (PC-3) | GI50 (HCT-15) [µM] | GI50 (SNB-75) | GI50 (NCI-H522) | GI50 (MDA-MB-435) | GI50 (SNB-19) | GI50 (OVCAR-8) | GI50 (SK-MEL-2) | GI50 (MCF7)
CO[C@H]1[C@H](O)[C@H](O[C@H]2CC[C@@]3(C)[C@H](CC[C@@H]4[C@@H]3CC[C@]3(C)[C@@H](C5=CC(=O)OC5)CC[C@]43O)C2)O[C@@H](C)[C@@H]1O [NERIIFOLIN] | 0.00139 µM (active) | 0.000419 µM (active) | 0.00154 µM (active) | < 0.01 µM (active) | 0.000925 µM (active) | 0.000628 µM (active) | 0.00056 µM (active) | 0.00155 µM (active) | 0.000428 µM (active) | 0.00027 µM (active) | 0.00167 µM (active) | 0.000724 µM (active) | 0.00112 | 0.000483 µM (active) | 0.000151 µM (active) | < 0.0001 µM (active) | 0.00094 µM (active) | 0.00108 µM (active) | 0.00117 µM (active) | 0.00076 µM (active)
CC(C)(C)OC(=O)N1C(C2=COc3ccccc3O2)=COc2ccccc21 | 27.7 µM (inactive) | 19 µM (inactive) | 33.3 µM (inactive) | 5.18 µM (inactive) | 24.3 µM (inactive) | 11.5 µM (inactive) | 26.9 µM (inactive) | 15.7 µM (inactive) | 22.9 µM (inactive) | 15.5 µM (inactive) | 23.9 µM (inactive) | 32.8 µM (inactive) | 31.2 | 35 µM (inactive) | 16 µM (inactive) | 31.3 µM (inactive) | 34.9 µM (inactive) | 28.3 µM (inactive) | 22 µM (inactive) | 24.2 µM (inactive)
O=[N+]([O-])c1cccc2nc3ccccc3c(NCCCn3ccnc3[N+](=O)[O-])c12 | < 0.0001 µM (active) | 0.000889 µM (active) | 0.00017 µM (active) | 0.000139 µM (active) | < 0.0001 µM (active) | 0.0407 µM (active) | 0.0117 µM (active) | 0.000959 µM (active) | 0.00023 µM (active) | 0.000785 µM (active) | 0.0039 µM (active) | 0.000598 µM (active) | 0.000131 | 0.0137 µM (active) | 0.00046 µM (active) | < 0.0001 µM (active) | 0.000366 µM (active) | 0.000111 µM (active) | 0.000235 µM (active) | < 0.0001 µM (active)
CN(C)CCCc1c2ccccc2nc2ccc(Cl)cc12 | 14.2 µM (inactive) | 16 µM (inactive) | 15.2 µM (inactive) | 14.1 µM (inactive) | 12.9 µM (inactive) | 36.5 µM (inactive) | 16.2 µM (inactive) | 18 µM (inactive) | 15.4 µM (inactive) | 14.5 µM (inactive) | 13.3 µM (inactive) | 16.8 µM (inactive) | 30.5 | 15.5 µM (inactive) | 14.2 µM (inactive) | 13.3 µM (inactive) | 12 µM (inactive) | 15.9 µM (inactive) | 19.9 µM (inactive) | 6.76 µM (inactive)
O=C(/C=C/c1ccco1)CC(=O)/C=C/c1ccco1 | 14.7 µM (inactive) | 5.55 µM (inactive) | 16.9 µM (inactive) | 4.58 µM (inactive) | 10.9 µM (inactive) | 8.67 µM (inactive) | > 10 µM (inactive) | 13.5 µM (inactive) | 13 µM (inactive) | 11.7 µM (inactive) | 37.8 µM (inactive) | > 10 µM (inactive) | 12.5 | 18 µM (inactive) | 7.31 µM (inactive) | 10.1 µM (inactive) | 15.5 µM (inactive) | 17.7 µM (inactive) | 14.3 µM (inactive) | 8.32 µM (inactive)
S=C1Cc2c(-c3ccc(Cl)cc3)cc(-c3ccccc3)nc2-c2ccccc2N1 | 12.8 µM (inactive) | 30.6 µM (inactive) | 24.5 µM (inactive) | 6.56 µM (inactive) | 19.1 µM (inactive) | 19.8 µM (inactive) | 14.2 µM (inactive) | 14.6 µM (inactive) | 13.8 µM (inactive) | 6.98 µM (inactive) | 14.1 µM (inactive) | 15.2 µM (inactive) | 21.1 | 3.76 µM (inactive) | 15.7 µM (inactive) | 15 µM (inactive) | 4.5 µM (inactive) | 2.86 µM (inactive) | 17.7 µM (inactive) | 17.1 µM (inactive)
CC(=O)C(=[N+]=[N-])C(=O)NCC#N | > 10 µM (inactive) | > 10 µM (inactive) | > 10 µM (inactive) | > 10 µM (inactive) | > 10 µM (inactive) | > 10 µM (inactive) | > 10 µM (inactive) | > 10 µM (inactive) | > 10 µM (inactive) | > 10 µM (inactive) | > 10 µM (inactive) | > 10 µM (inactive) | > 10 | 0.441 µM (active) | > 10 µM (inactive) | > 10 µM (inactive) | > 10 µM (inactive) | > 10 µM (inactive) | > 10 µM (inactive) | > 10 µM (inactive)
COc1cc2c(cc1OC)C1Cc3cc(OC)c(OC)cc3C(C2)N1C | > 100 µM (inactive) | 14.9 µM (inactive) | > 100 µM (inactive) | > 75 µM (inactive) | > 100 µM (inactive) | > 75 µM (inactive) | 40.6 µM (inactive) | 61.1 µM (inactive) | > 75 µM (inactive) | > 75 µM (inactive) and 44.3 µM (inactive) | > 100 µM (inactive) | > 75 µM (inactive) | > 100 | > 100 µM (inactive) | > 100 µM (inactive) | > 75 µM (inactive) | > 100 µM (inactive) | > 100 µM (inactive) | > 75 µM (inactive) | > 75 µM (inactive)
ClCc1nn(-c2ccccc2)c(CCl)c1CCl | 3.3 µM (inactive) | 1.82 µM (inactive) | 7.16 µM (inactive) | 4.82 µM (inactive) | 2.55 µM (inactive) | 3.55 µM (inactive) | 6 µM (inactive) | 3.47 µM (inactive) | 2.99 µM (inactive) | 15.8 µM (inactive) | 7.76 µM (inactive) | 5.71 µM (inactive) | 3.33 | 1.74 µM (inactive) | 4.25 µM (inactive) | 2.41 µM (inactive) | 6.73 µM (inactive) | 2.35 µM (inactive) | 5.71 µM (inactive) | 2.38 µM (inactive)

From ChEMBL document CHEMBL1201862, “PubChem BioAssay data set” (2004)
